Measurements: patent US7511027B2, “Method of treating hepatitis delta virus infection” (Georgetown University, priority 2000, dated 2009)

What was measured:
HDV [1] = test: Woodchuck model of chronic HDV infection: serum HDV RNA; assay type: in vivo
Description: (§1) The woodchuck was used as an experimental model of chronic HDV infection to assess the effect of L-FMAU treatment on HDV replication. Woodchucks chronically infected with WHV were infected with a woodchuck-adapted HDV inoculum derived from a laboratory infectious clone. Nine of eleven infected animals were determined to have chronic HDV infection, as defined by RT/PCR-detectable HDV viremia (Niro et al. (1997) Hepatology 25, 728-734) for at least 74% of bleed dates for at least 11 months prior to the initiation of treatment. The range of duration of viremia prior to the start of the study was 11.4-20 months; the range of positive bleed dates was 74% to 100%. Animals in the treatment group (4) were given 10 mg/kg L-FMAU daily; animals in the control group (5) were given placebo. Serum samples were obtained before the initiation of treatment, and at weeks 2, 4, 8, 12, 16 and 20. Serum samples were analyzed for WHV DNA, WHV surface antigen and HDV RNA.

WHV surface antigen = test: Woodchuck model of chronic HDV infection: serum WHV surface antigen; assay type: in vivo
Description: as §1

WHV = test: Woodchuck model of chronic HDV infection: serum WHV DNA; assay type: in vivo
Description: as §1

hepatocytes = details: cited from earlier work
HDV [2] = details: in vitro; cited from earlier work
HDV [3] = details: in vivo; cited from earlier work
[4] = one animal in the treated group, animal 4543

SMILES: Cc1cn([C@H]2O[C@@H](CO)[C@H](O)[C@H]2F)c(=O)[nH]c1=O [L-FMAU, 2′-fluoro-5-methyl-β-L-arabinofuranosyl-uridine]
- HDV RNA in serum (HDV [1]; 10 mg/kg L-FMAU daily, by 16 weeks of treatment (FIG. 6A)): undetectable in ¾ treated animals
- HDV viremia, animal 4543 (HDV [1]; [4]): remained high
- serum HDV-RNA (FIG. 6A) (HDV [1]; over twenty weeks of treatment): significant decrease
- mean serum HDV RNA (HDV [1]; woodchucks 4878, 4879, 4883, by 8 weeks of treatment vs start of treatment and vs five untreated animals (FIG. 8)): dramatic decline
- decrease in surface antigen levels (WHV surface antigen; 10 mg/kg L-FMAU daily, by 12 weeks, all but one (animal 4543) of the treated animals (FIG. 6C)): ~1,000 fold
- levels of surface antigen, animal 4543 (WHV surface antigen; [4]): did not exhibit decreased levels
- serum WHsAg (FIG. 6C) (WHV surface antigen; over twenty weeks of treatment): significant decrease
- surface antigen concentration after which HDV viremia became undetectable (WHV surface antigen; treated animals with decreased surface antigen, sustained for remainder of treatment): less than 1 microgram/mL
- drop of WHsAg levels during treatment (WHV surface antigen; treated woodchucks 4878, 4879 and 4883): more than 100 fold
- decrease in serum WHV DNA (WHV; 10 mg/kg L-FMAU daily, by 4 weeks of treatment, all treated animals (FIG. 6B)): > 10^7 fold
- serum WHV-DNA (FIG. 6B) (WHV; over twenty weeks of treatment): significant decrease

SMILES: Cc1ccc(C(=O)Nc2ccc(S(=O)(=O)O)c3cc(S(=O)(=O)O)cc(S(=O)(=O)O)c23)cc1NC(=O)c1cccc(NC(=O)Nc2cccc(C(=O)Nc3cc(C(=O)Nc4ccc(S(=O)(=O)O)c5cc(S(=O)(=O)O)cc(S(=O)(=O)O)c45)ccc3C)c2)c1 [suramin]
- entry of the virion into hepatocytes (hepatocytes): blocks

SMILES: Nc1nc2c(ncn2COCCO)c(=O)[nH]1 [Acyclovir]
- HDV replication (HDV [2]): enhances

SMILES: NC(=O)c1ncn([C@@H]2O[C@H](CO)[C@@H](O)[C@H]2O)n1 [Ribavirin]
- side-effects (HDV [3]): severe side-effects
- virological or biochemical parameters (HDV [3]): did not significantly affect
